The subject of one data set is Mycobacteroides chelonae. Description: Antimycobacterial activity against Mycobacterium chelonae ATCC 35752 after 7 days under normoxic condition by microplate Alamar blue assay. It is filed as functional. The note with it: ATCC 35752, 168 h.
In data set [1] the test system is Mycobacterium tuberculosis. Description: microbe, parasite or virus in culture. The data set is classed as functional. The note with it: H37Rv ATCC 27294, 168 h.
Description: Antitubercular activity against Mycobacterium tuberculosis H37Rv ATCC 27294 after 7 days under normoxic condition by microplate Alamar blue assay
Another data set relates to Escherichia coli. Description: Antibacterial activity against Escherichia coli ATCC 25922 after 16 to 20 hrs. It is filed as functional.
The nature of a further data set: in vitro. The note with it: monkey, Vero cells.
Data set [2] has as its system Mycobacteroides abscessus. Put plainly: Antimycobacterial activity against Mycobacterium abscessus ATCC 19977 after 7 days under normoxic condition by microplate Alamar blue assay. It is filed as functional. The note with it: ATCC 19977, 168 h. Background: The colour change of resazurin is a common sign of viable cells or microbes.
The subject of a further data set is Mycobacterium marinum. Description: Antimycobacterial activity against Mycobacterium marinum ATCC 927 after 7 days under normoxic condition by microplate Alamar blue assay. The data set is classed as functional. The note with it: ATCC 927, 168 h.
The subject of another data set is Mycobacterium avium. Put plainly: Antimycobacterial activity against Mycobacterium avium ATCC 15769 after 7 days under normoxic condition by microplate Alamar blue assay. It is filed as functional. The note with it: ATCC 15769, 168 h.
The subject of another data set is Staphylococcus aureus. Description: Antibacterial activity against Staphylococcus aureus ATCC 29213 after 16 to 20 hrs. The data set is classed as functional.
Another data set concerns Candida albicans. Description: Antifungal activity against Candida albicans ATCC 90028 after 36 to 48 hrs. It is filed as functional.
Data set [3] has as its system Mycobacterium tuberculosis. Description: Antitubercular activity against Mycobacterium tuberculosis H37Rv ATCC 27294 treated for 10 days under hypoxic condition followed by 28 hrs of normoxic recovery. It is filed as functional.
Data set [4] deals with Mycolicibacterium smegmatis. Description: Antimycobacterial activity against Mycobacterium smegmatis ATCC MC2155 after 7 days under normoxic condition by microplate Alamar blue assay. The note with it: str. MC2 155, 168 h. It is filed as functional.
A further data set has as its system Mycobacterium kansasii. Description: Antimycobacterial activity against Mycobacterium kansasii ATCC 12478 after 7 days under normoxic condition by microplate Alamar blue assay. The note with it: ATCC 12478, 168 h. It is filed as functional.

This is an account of results in ChEMBL document CHEMBL4118066, “QSAR-driven design, synthesis and discovery of potent chalcone derivatives with antitubercular activity” (Eur J Med Chem, 2017).

Values after ≈ are worked out from the molar mass of the structure shown.

Description for in vitro: Selectivity index, ratio of IC50 for African green monkey Vero cells to MIC90 for Mycobacterium tuberculosis H37Rv ATCC 27294 under normoxic condition

Turning to `CCCCc1ccc(C(=O)/C=C/c2ccc([N+](=O)[O-])o2)cc1`, the MIC90 against Mycobacteroides chelonae is greater than 10 µM; in data set [1], 1.31 µM (≈ 0.392 µg/mL); against Escherichia coli, greater than 10 µM; in [2], greater than 10 µM; against Mycobacterium marinum, greater than 10 µM; against Mycobacterium avium it was 3.07 µM (≈ 0.919 µg/mL). Moreover, the MIC90 is 2.23 µM (≈ 0.667 µg/mL) in the data set on Staphylococcus aureus; greater than 10 µM with Candida albicans; 4.21 µM (≈ 1.26 µg/mL) in [3]; greater than 10 µM in data set [4]; 0.58 µM (≈ 0.174 µg/mL) against Mycobacterium kansasii. Besides, the selectivity ratio in the data set “in vitro” stood at 57.
Regarding `Cc1cccc(C(=O)/C=C/c2ccc([N+](=O)[O-])o2)c1`, the MIC90 was greater than 10 µM in the data set on Mycobacteroides chelonae; 1.27 µM (≈ 0.327 µg/mL) in [1]; greater than 10 µM against Escherichia coli; greater than 10 µM in data set [2]; 2.39 µM (≈ 0.615 µg/mL) against Mycobacterium marinum; 1.92 µM (≈ 0.494 µg/mL) with Mycobacterium avium. Further, the MIC90 in the data set with Staphylococcus aureus was 2.23 µM (≈ 0.574 µg/mL); in the data set with Candida albicans it was greater than 10 µM; in [3], 4.75 µM (≈ 1.22 µg/mL); in data set [4], greater than 10 µM; with Mycobacterium kansasii, 0.49 µM (≈ 0.126 µg/mL). For the same compound, the selectivity ratio in “in vitro” worked out at 43.
With `O=C(/C=C/c1ccc([N+](=O)[O-])s1)c1ccc(-n2ccnc2)cc1`, the MIC90 was 1.63 µM (≈ 0.53 µg/mL) against Mycobacteroides chelonae; 0.19 µM (≈ 0.0618 µg/mL) in data set [1]; greater than 10 µM against Escherichia coli; 4.7 µM (≈ 1.53 µg/mL) in data set [2]; greater than 10 µM in the data set on Mycobacterium marinum; 2.1 µM (≈ 0.683 µg/mL) in the data set with Mycobacterium avium. For the same compound, the MIC90 in the data set on Staphylococcus aureus was 0.28 µM (≈ 0.0911 µg/mL); in the data set with Candida albicans, greater than 10 µM; in [3] it was 1.73 µM (≈ 0.563 µg/mL); in data set [4] it was 4.39 µM (≈ 1.43 µg/mL); in the data set with Mycobacterium kansasii, 0.56 µM (≈ 0.182 µg/mL). In addition, the selectivity ratio in “in vitro” worked out at 225.
As to `O=C(/C=C/c1ccc([N+](=O)[O-])o1)c1ccc(-c2ccccc2)cc1`, the MIC90 was greater than 10 µM with Mycobacteroides chelonae; 3.91 µM (≈ 1.25 µg/mL) in data set [1]; greater than 10 µM against Escherichia coli; greater than 10 µM in [2]; greater than 10 µM against Mycobacterium marinum; 1.27 µM (≈ 0.406 µg/mL) against Mycobacterium avium. The MIC90 in the data set with Staphylococcus aureus was greater than 10 µM; against Candida albicans it was greater than 10 µM; in [3] it was 3.18 µM (≈ 1.02 µg/mL); in data set [4] it was greater than 10 µM; against Mycobacterium kansasii, 0.49 µM (≈ 0.156 µg/mL). Besides, the selectivity ratio in the data set “in vitro” worked out at 25.
Turning to `Cc1ccccc1C(=O)/C=C/c1ccc([N+](=O)[O-])o1`, the MIC90 in the data set with Mycobacteroides chelonae was greater than 10 µM; in data set [1] it was 0.57 µM (≈ 0.147 µg/mL); in the data set on Escherichia coli, greater than 10 µM; in data set [2] it was greater than 10 µM; in the data set on Mycobacterium marinum, greater than 10 µM; against Mycobacterium avium, 3.04 µM (≈ 0.782 µg/mL). The MIC90 against Staphylococcus aureus was 1.09 µM (≈ 0.28 µg/mL); against Candida albicans, 6.36 µM (≈ 1.64 µg/mL); in [3], 4.59 µM (≈ 1.18 µg/mL); in data set [4], 9.5 µM (≈ 2.44 µg/mL); against Mycobacterium kansasii, 1.16 µM (≈ 0.298 µg/mL). Moreover, in the data set “in vitro”, the selectivity ratio is 41.
In the case of `COc1ccc(/C=C/C(=O)c2cccc(Br)c2)cc1`, the MIC90 is greater than 10 µM with Mycobacteroides chelonae; 8.54 µM (≈ 2.71 µg/mL) in [1]; greater than 10 µM against Escherichia coli; greater than 10 µM in data set [2]; greater than 10 µM with Mycobacterium marinum; 9.82 µM (≈ 3.11 µg/mL) in the data set on Mycobacterium avium. The MIC90 with Staphylococcus aureus was greater than 10 µM; in the data set on Candida albicans, greater than 10 µM; in data set [3], 8.2 µM (≈ 2.6 µg/mL); in data set [4], greater than 10 µM; in the data set on Mycobacterium kansasii, 9.21 µM (≈ 2.92 µg/mL). In addition, the selectivity ratio in “in vitro” is 11.
For `O=C(/C=C/c1ccc([N+](=O)[O-])o1)c1ccc(I)cc1`, the MIC90 in the data set on Mycobacteroides chelonae is greater than 10 µM; in [1], 0.6 µM (≈ 0.221 µg/mL); with Escherichia coli, greater than 10 µM; in data set [2], greater than 10 µM; in the data set on Mycobacterium marinum it was greater than 10 µM; with Mycobacterium avium, 2.38 µM (≈ 0.878 µg/mL). The MIC90 was greater than 10 µM with Staphylococcus aureus; greater than 10 µM against Candida albicans; 4.12 µM (≈ 1.52 µg/mL) in data set [3]; 4.62 µM (≈ 1.71 µg/mL) in [4]; 0.59 µM (≈ 0.218 µg/mL) against Mycobacterium kansasii. Also, the selectivity ratio in the data set “in vitro” turned out to be 166.
`CSc1ccc(C(=O)/C=C/c2ccc([N+](=O)[O-])s2)cc1`: the MIC90 in the data set with Mycobacteroides chelonae is greater than 10 µM; in [1], 0.45 µM (≈ 0.137 µg/mL); in the data set with Escherichia coli it was greater than 10 µM; in data set [2], greater than 10 µM; in the data set with Mycobacterium marinum, greater than 10 µM; against Mycobacterium avium, 6.89 µM (≈ 2.1 µg/mL). Further, the MIC90 with Staphylococcus aureus is greater than 10 µM; in the data set on Candida albicans it was greater than 10 µM; in data set [3], 5.96 µM (≈ 1.82 µg/mL); in data set [4], greater than 10 µM; against Mycobacterium kansasii it was 3.86 µM (≈ 1.18 µg/mL). Moreover, in “in vitro”, the selectivity ratio worked out at 222.
As for `CSc1ccc(C(=O)/C=C/c2ccc([N+](=O)[O-])o2)cc1`, the MIC90 is 4.66 µM (≈ 1.35 µg/mL) against Mycobacteroides chelonae; 0.66 µM (≈ 0.191 µg/mL) in data set [1]; greater than 10 µM against Escherichia coli; greater than 10 µM in data set [2]; greater than 10 µM in the data set on Mycobacterium marinum; 1.39 µM (≈ 0.402 µg/mL) in the data set on Mycobacterium avium. The MIC90 against Staphylococcus aureus was 0.58 µM (≈ 0.168 µg/mL); with Candida albicans, greater than 10 µM; in [3], 5.07 µM (≈ 1.47 µg/mL); in data set [4] it was 4.81 µM (≈ 1.39 µg/mL); with Mycobacterium kansasii, 0.3 µM (≈ 0.0868 µg/mL). Besides, the selectivity ratio in the data set “in vitro” was 61.
Consider `O=C(/C=C/c1ccc([N+](=O)[O-])o1)c1ccc(-n2ccnc2)cc1`, for which the MIC90 is 1.05 µM (≈ 0.325 µg/mL) in [1]; 3.18 µM (≈ 0.984 µg/mL) against Escherichia coli; 0.34 µM (≈ 0.105 µg/mL) in the data set on Staphylococcus aureus; greater than 10 µM against Candida albicans; 6.94 µM (≈ 2.15 µg/mL) in data set [3]; greater than 10 µM in data set [4]. Besides, the selectivity ratio in “in vitro” amounted to 94.
In the case of `O=C(/C=C/c1ccc([N+](=O)[O-])o1)c1ccc(N2CCOCC2)cc1`, the MIC90 was 0.81 µM (≈ 0.266 µg/mL) in [1]; greater than 10 µM against Escherichia coli; 1.19 µM (≈ 0.391 µg/mL) against Staphylococcus aureus; greater than 10 µM with Candida albicans; 9.85 µM (≈ 3.23 µg/mL) in data set [3]; greater than 10 µM in [4]. For the same compound, in the data set “in vitro”, the selectivity ratio amounted to 123.
As to `COc1ccc(/C=C/C(=O)c2cccc(I)c2)cc1`, the MIC90 with Mycobacteroides chelonae is greater than 10 µM; in data set [1], 4.9 µM (≈ 1.78 µg/mL); with Escherichia coli, greater than 10 µM; in data set [2] it was greater than 10 µM; in the data set on Mycobacterium marinum, greater than 10 µM; against Mycobacterium avium, 9.64 µM (≈ 3.51 µg/mL). Moreover, the MIC90 is greater than 10 µM against Staphylococcus aureus; greater than 10 µM against Candida albicans; greater than 10 µM in data set [3]; greater than 10 µM in data set [4]; 9.4 µM (≈ 3.42 µg/mL) in the data set with Mycobacterium kansasii. In the data set “in vitro”, the selectivity ratio was found to be 20.
Consider `CCCCc1ccc(C(=O)/C=C/c2ccc([N+](=O)[O-])s2)cc1`, for which the MIC90 in the data set with Mycobacteroides chelonae was greater than 10 µM; in [1], 0.54 µM (≈ 0.17 µg/mL); against Escherichia coli, greater than 10 µM; in data set [2], greater than 10 µM; against Mycobacterium marinum it was greater than 10 µM; against Mycobacterium avium it was 2.14 µM (≈ 0.675 µg/mL). In addition, the MIC90 is greater than 10 µM with Staphylococcus aureus; greater than 10 µM against Candida albicans; 5.56 µM (≈ 1.75 µg/mL) in data set [3]; greater than 10 µM in data set [4]; 1.73 µM (≈ 0.546 µg/mL) against Mycobacterium kansasii. The selectivity ratio in “in vitro” worked out at 81.
As for `CC(C)(C)c1ccc(C(=O)/C=C/c2ccc([N+](=O)[O-])s2)cc1`, the MIC90 in the data set with Mycobacteroides chelonae is greater than 10 µM; in [1], 0.22 µM (≈ 0.0694 µg/mL); in the data set with Escherichia coli, greater than 10 µM; in data set [2], greater than 10 µM; in the data set on Mycobacterium marinum, greater than 10 µM; in the data set with Mycobacterium avium it was 1.08 µM (≈ 0.341 µg/mL). For the same compound, the MIC90 is greater than 10 µM against Staphylococcus aureus; greater than 10 µM against Candida albicans; 4.18 µM (≈ 1.32 µg/mL) in data set [3]; greater than 10 µM in data set [4]; 0.92 µM (≈ 0.29 µg/mL) in the data set on Mycobacterium kansasii. Also, in “in vitro”, the selectivity ratio came out at 454.
`O=C(/C=C/c1ccc([N+](=O)[O-])o1)c1cccc(Br)c1`: the MIC90 was greater than 10 µM against Mycobacteroides chelonae; 1.32 µM (≈ 0.425 µg/mL) in data set [1]; greater than 10 µM with Escherichia coli; greater than 10 µM in [2]; greater than 10 µM with Mycobacterium marinum; 2.95 µM (≈ 0.95 µg/mL) against Mycobacterium avium. Also, the MIC90 was 1.68 µM (≈ 0.541 µg/mL) with Staphylococcus aureus; greater than 10 µM against Candida albicans; 5.65 µM (≈ 1.82 µg/mL) in data set [3]; 4.84 µM (≈ 1.56 µg/mL) in data set [4]; 1.65 µM (≈ 0.531 µg/mL) against Mycobacterium kansasii. Moreover, in the data set “in vitro”, the selectivity ratio came out at 52.
